ChEMBL document CHEMBL3885881, “DrugMatrix”

Organism: Rattus norvegicus
Test: DrugMatrix - Regimen: Daily Repeat
Format: toxicity, organism-based, Sprague-Dawley
Design: regimen Daily Repeat, gender Male, age 6-8 weeks
Conditions: in vivo, po, route oral GAVAGE, vehicle .5 % CMC; for ABSOLUTE BASOPHIL / ABSOLUTE EOSINOPHIL / ABSOLUTE LYMPHOCYTE / ABSOLUTE MONOCYTE / ABSOLUTE SEGMENTED NEUTROPHIL / BASOPHIL / EOSINOPHIL / ERYTHROCYTE COUNT / HEMATOCRIT / HEMOGLOBIN / LEUKOCYTE COUNT / LYMPHOCYTE / MEAN CORPUSCULAR HEMOGLOBIN / MEAN CORPUSCULAR HEMOGLOBIN CONCENTRATION / MEAN CORPUSCULAR VOLUME / MONOCYTE / NEUTROPHIL / NUCLEATED RED BLOOD CELLS / PLATELET COUNT: tissue Blood; for ALANINE AMINOTRANSFERASE / ALBUMIN / ALKALINE PHOSPHATASE / ASPARTATE AMINOTRANSFERASE / BLOOD UREA NITROGEN / CARBON DIOXIDE / CHLORIDE / CHOLESTEROL / CREATINE PHOSPHOKINASE / CREATININE / GLUCOSE / LACTATE DEHYDROGENASE / LIPASE / PHOSPHORUS / POTASSIUM / SODIUM / TOTAL BILIRUBIN / TOTAL PROTEIN / URIC ACID: tissue Plasma
[1] = 0 mg/kg, 72 h, dose level Control, time 3 day
[2] = 0 mg/kg, 120 h, dose level Control, time 5 day
[3] = 75 mg/kg, 72 h, dose level High, time 3 day

## Cc1ccc(/N=C/N(C)/C=N/c2ccc(C)cc2C)c(C)c1 [AMITRAZ]
[1]
  ABSOLUTE BASOPHIL: 0 CELLS/uL
  ABSOLUTE EOSINOPHIL: 0 CELLS/uL
  ABSOLUTE LYMPHOCYTE: 12269.67 CELLS/uL
  ABSOLUTE MONOCYTE: 160.33 CELLS/uL
  ABSOLUTE SEGMENTED NEUTROPHIL: 970 CELLS/uL
  BASOPHIL: 0%
  EOSINOPHIL: 0%
  ERYTHROCYTE COUNT: 5.76 x10E6/uL
  HEMATOCRIT: 36.57%
  HEMOGLOBIN: 14.22 G/DL
  LEUKOCYTE COUNT: 13.4 x10E3/uL
  LYMPHOCYTE: 91.67%
  MEAN CORPUSCULAR HEMOGLOBIN: 24.67 pg
  MEAN CORPUSCULAR HEMOGLOBIN CONCENTRATION: 38.85 G/DL
  MEAN CORPUSCULAR VOLUME: 63.52 fL
  MONOCYTE: 1.17%
  NEUTROPHIL: 7.17%
  NUCLEATED RED BLOOD CELLS: 0.33 /100WBC
  PLATELET COUNT: 1250.83 x10E3/uL
  ALANINE AMINOTRANSFERASE: 49.17 u/L
  ALBUMIN: 4.33 G/DL
  ALKALINE PHOSPHATASE: 378.5 u/L
  ASPARTATE AMINOTRANSFERASE: 82.17 u/L
  BLOOD UREA NITROGEN: 15 mg/dL
  CARBON DIOXIDE: 34.33 mmol/L
  CHLORIDE: 99.17 MEQ/L
  CHOLESTEROL: 71.17 mg/dL
  CREATINE PHOSPHOKINASE: 258.67 u/L
  CREATININE: 0.18 mg/dL
  GLUCOSE: 142.67 mg/dL
  LACTATE DEHYDROGENASE: 154.33 u/L
  LIPASE: 9 u/L
  PHOSPHORUS: 11.67 mg/dL
  POTASSIUM: 7.13 MEQ/L
  SODIUM: 142.22 MEQ/L
  TOTAL BILIRUBIN: 0.18 mg/dL
  TOTAL PROTEIN: 5.77 G/DL
  URIC ACID: 1.55 mg/dL
[2]
  ABSOLUTE BASOPHIL: 0 CELLS/uL
  ABSOLUTE EOSINOPHIL: 23.33 CELLS/uL
  ABSOLUTE LYMPHOCYTE: 14943.67 CELLS/uL
  ABSOLUTE MONOCYTE: 32 CELLS/uL
  ABSOLUTE SEGMENTED NEUTROPHIL: 1084.33 CELLS/uL
  BASOPHIL: 0%
  EOSINOPHIL: 0.17%
  ERYTHROCYTE COUNT: 5.71 x10E6/uL
  HEMATOCRIT: 35.28%
  HEMOGLOBIN: 14.27 G/DL
  LEUKOCYTE COUNT: 16.08 x10E3/uL
  LYMPHOCYTE: 93%
  MEAN CORPUSCULAR HEMOGLOBIN: 25.02 pg
  MEAN CORPUSCULAR HEMOGLOBIN CONCENTRATION: 40.43 G/DL
  MEAN CORPUSCULAR VOLUME: 61.82 fL
  MONOCYTE: 0.17%
  NEUTROPHIL: 6.67%
  NUCLEATED RED BLOOD CELLS: 0.33 /100WBC
  PLATELET COUNT: 1274 x10E3/uL
  ALANINE AMINOTRANSFERASE: 54.17 u/L
  ALBUMIN: 4.22 G/DL
  ALKALINE PHOSPHATASE: 373.17 u/L
  ASPARTATE AMINOTRANSFERASE: 81.83 u/L
  BLOOD UREA NITROGEN: 16.67 mg/dL
  CARBON DIOXIDE: 30.33 mmol/L
  CHLORIDE: 99 MEQ/L
  CHOLESTEROL: 71 mg/dL
  CREATINE PHOSPHOKINASE: 273.5 u/L
  CREATININE: 0.22 mg/dL
  GLUCOSE: 141.83 mg/dL
  LACTATE DEHYDROGENASE: 153.67 u/L
  LIPASE: 10.33 u/L
  PHOSPHORUS: 11.38 mg/dL
  POTASSIUM: 7.08 MEQ/L
  SODIUM: 142.75 MEQ/L
  TOTAL BILIRUBIN: 0.18 mg/dL
  TOTAL PROTEIN: 6.1 G/DL
  URIC ACID: 1.67 mg/dL
[3]
  ABSOLUTE BASOPHIL: 0 CELLS/uL
  ABSOLUTE EOSINOPHIL: 0 CELLS/uL
  ABSOLUTE LYMPHOCYTE: 12442 CELLS/uL
  ABSOLUTE MONOCYTE: 223 CELLS/uL
  ABSOLUTE SEGMENTED NEUTROPHIL: 868.33 CELLS/uL
  BASOPHIL: 0%
  EOSINOPHIL: 0%
  ERYTHROCYTE COUNT: 6.64 x10E6/uL
  HEMATOCRIT: 42%
  HEMOGLOBIN: 16.13 G/DL
  LEUKOCYTE COUNT: 13.53 x10E3/uL
  LYMPHOCYTE: 92.33%
  MEAN CORPUSCULAR HEMOGLOBIN: 24.27 pg
  MEAN CORPUSCULAR HEMOGLOBIN CONCENTRATION: 38.4 G/DL
  MEAN CORPUSCULAR VOLUME: 63.23 fL
  MONOCYTE: 1.67%
  NEUTROPHIL: 6%
  NUCLEATED RED BLOOD CELLS: 0 /100WBC
  PLATELET COUNT: 1347.33 x10E3/uL
  ALANINE AMINOTRANSFERASE: 35.67 u/L
  ALBUMIN: 3.93 G/DL
  ALKALINE PHOSPHATASE: 354 u/L
  ASPARTATE AMINOTRANSFERASE: 84.33 u/L
  BLOOD UREA NITROGEN: 20 mg/dL
  CARBON DIOXIDE: 34.67 mmol/L
  CHLORIDE: 101.67 MEQ/L
  CHOLESTEROL: 49 mg/dL
  CREATINE PHOSPHOKINASE: 285.33 u/L
  CREATININE: 0.3 mg/dL
  GLUCOSE: 211 mg/dL
  LACTATE DEHYDROGENASE: 230 u/L
  LIPASE: 8.33 u/L
  PHOSPHORUS: 11.13 mg/dL
  POTASSIUM: 6.26 MEQ/L
  SODIUM: 146.5 MEQ/L
  TOTAL BILIRUBIN: 0.23 mg/dL
  TOTAL PROTEIN: 5.2 G/DL
  URIC ACID: 1.83 mg/dL
